# Laboratory results as given in patent publication US5990136A, “Isoxazoline derivatives useful as antimicrobials” (Pharmacia & Upjohn Company, priority 1997, dated 1999).
# Columns and labels:
# [1] = tested on: Streptococcus Pneumoniae UC ® No. 9912; assay: In vitro antimicrobial activity (MIC, agar dilution, Mueller Hinton agar), S. pneumoniae UC 9912; type: cell-based; conditions: UC9912, 35° C., 18 hours, read-out: Minimum inhibitory concentration (MIC), S. p. 9912
# Procedure: (§1) Antimicrobial activity was tested in vitro using the procedure described in National Committee for Clinical Laboratory Standards. Methods for dilution antimicrobial susceptibility tests for bacteria that grow aerobically are disclosed in the third edition of Approved Standard, NCCLS Document M7-A3, Villanova, Pa., 1993. Minimum inhibitory concentration (MIC) values were determined by an agar dilution method (1) in which the test medium was Mueller Hinton agar (MHA; Difco Laboratories, Detroit, Mich.) supplemented with 1% Supplement C (Difco). Serial two-fold dilutions of each compound were prepared using 1.0 ml volumes of sterile distilled water. To each 1.0 ml aliquot was added 9.0 ml of molten agar medium. The drug-supplemented agar was mixed, poured into 15×100 mm petri dishes, and allowed to solidify and dry at room temperature prior to inoculation. The test cultures were grown aerobically overnight at 35° C. on MHA; streptococcal strains were grown on Trypticase Soy Blood Agar Base EH (Difco) supplemented with 5% defibrinated sheep blood (BBL, Becton Dickinson Company, Cockeysville, Md.). Colonies were harvested with a sterile swab, and cell suspensions were prepared in Trypticase Soy Broth (TSB; Becton Dickinson Company) to equal the turbidity of a 0.5 McFarland standard. A 1:19 dilution of the suspension was made in TSB; this diluted suspension constituted the inoculum for the assay. The plates containing the drug-supplemented agar were inoculated with a 0.001 ml drop of the cell suspensions using a Steers replicator (Melrose Machine Shop, Woodlyn, Pa.), yielding approximately 10^4 -10^5 cells per spot. The plates were incubated aerobically at 35° C. for 18 hours and the MIC was read as the lowest concentration of drug that inhibited visible growth of the organism. The growth of a single colony was considered to be negative.
# [2] = tested on: Staphylococcus aureus UC ® No. 9213; assay: In vitro antimicrobial activity (MIC, agar dilution, Mueller Hinton agar), S. aureus UC 9213; type: cell-based; conditions: UC9213, 35° C., 18 hours, read-out: Minimum inhibitory concentration (MIC), S. a. 9213
# Procedure: as §1
# [3] = tested on: Enterococcus faecalis UC ® No. 9217; assay: In vitro antimicrobial activity (MIC, agar dilution, Mueller Hinton agar), E. faecalis UC 9217; type: cell-based; conditions: UC9217, 35° C., 18 hours, read-out: Minimum inhibitory concentration (MIC), E. f. 9217
# Procedure: as §1
# S, aureus UC ® No. 9213 = conditions: Antimicrob. Agents Chemother. 1996 and ICAAC 1995 posters; cited from earlier work
Compound,MIC [1],MIC [2],MIC [3],"potency of U-100592 versus vancomycin in this animal model (S, aureus UC ® No. 9213)"
"CC(=O)NCC1CC(c2ccc(C3=CCN(C(=O)CO)CC3)cc2)=NO1 (stereo not shown) [Example 4, N-[[4,5-Dihydro-3-[4-[1,2,3,6-tetrahydro-1-(hydroxyacetyl)-4-pyridinyl]phenyl]-5-isoxazolyl]methyl]acetamide]",2 µg/mL,4 µg/mL,8 µg/mL,
"COC(=O)N1CC=C(c2ccc(C3=NOC(CNC(C)=O)C3)cc2)CC1 (stereo not shown) [Example 6, Methyl 4-[4-[5-[(acetylamino)methyl]-4,5-dihydro-3-isoxazolyl]phenyl]-3,6-dihydro-1(2H)-pyridinecarboxylate]",4 µg/mL,16 µg/mL,16 µg/mL,
"CC(=O)NCC1CC(c2ccc(C3=CCN(C(C)=O)CC3)cc2)=NO1 (stereo not shown) [Example 7, N-[[4,5-Dihydro-3-[4-[1,2,3,6-tetrahydro-1-(acetyl)-4-pyridinyl]phenyl]-5-isoxazolyl]methyl]acetamide]",2 µg/mL,8 µg/mL,16 µg/mL,
CC(=O)NC[C@H]1CN(c2ccc(N3CCN(C(=O)CO)CC3)c(F)c2)C(=O)O1 [Example U-100592],,,,equipotent to vancomycin

# Further compounds by falling MIC [1], results first:
MIC [1],MIC [2],MIC [3],Compound,"potency of U-100592 versus vancomycin in this animal model (S, aureus UC ® No. 9213)"
1 µg/mL,4 µg/mL,4 µg/mL,"COc1ccc(-c2ccc(C3=NOC(CNC(C)=O)C3)cc2)ccc1=O (racemic) [Example 1, N-[[4,5-Dihydro-3-[4-(4-methoxy-5-oxo-1,3,6-cycloheptatrien-1-yl)phenyl]-5-isoxazolyl]methyl]acetamide]",
0.5 µg/mL,2 µg/mL,4 µg/mL,"CC(=O)NC[C@H]1CC(c2ccc(C3=CCN(C(=O)CO)CC3)cc2)=NO1 [Example 5, (R)-N-[[4,5-Dihydro-3-[4-[1,2,3,6-tetrahydro-1-(hydroxyacetyl)-4-pyridinyl]phenyl]-5-isoxazolyl]methyl]acetamide]",
0.25 µg/mL,1 µg/mL,2 µg/mL,"CC(=O)NC[C@H]1CC(c2ccc(-c3ccncc3)cc2)=NO1 [Example 8, (R)-N-[[4,5-Dihydro-3-[4-(4-pyridinyl)phenyl]-5-isoxazolyl]methyl]acetamide]",
